Laboratory results published in the supplement of paper PMC13380429.

Columns and labels:
Conditions in all cases: 72 h
Caco-2 [1] = test: cell viability relative to DMSO; higher = less toxic
Calu-3 [2] = test: as above
HepG2 [3] = test: as above
U2OS [4] = test: as above
Vero E6 [5] = test: as above
Caco-2 [6] = test: relative viability EC50 (midpoint between 100% and the lowest measured viability); higher = less toxic
Calu-3 [7] = test: as above
HepG2 [8] = test: as above
U2OS [9] = test: as above
Vero E6 [10] = test: as above
Caco-2 [11] = test: drug sensitivity score (DSS) for viability; higher = more toxic; extreme values may be limits of the assay
Calu-3 [12] = test: as above
HepG2 [13] = test: as above
U2OS [14] = test: as above
Vero E6 [15] = test: as above

Compound	cell viability (Caco-2 [1]; 1 nM) [%]	cell viability (Caco-2 [1]; 10 nM) [%]	cell viability (Caco-2 [1]; 100 nM) [%]	cell viability (Caco-2 [1]; 1000 nM) [%]	cell viability (Caco-2 [1]; 10000 nM) [%]	cell viability (Calu-3 [2]; 1 nM) [%]	cell viability (Calu-3 [2]; 10 nM) [%]	cell viability (Calu-3 [2]; 100 nM) [%]	cell viability (Calu-3 [2]; 1000 nM) [%]	cell viability (Calu-3 [2]; 10000 nM) [%]	cell viability (HepG2 [3]; 1 nM) [%]	cell viability (HepG2 [3]; 10 nM) [%]	cell viability (HepG2 [3]; 100 nM) [%]	cell viability (HepG2 [3]; 1000 nM) [%]	cell viability (HepG2 [3]; 10000 nM) [%]	cell viability (U2OS [4]; 1 nM) [%]	cell viability (U2OS [4]; 10 nM) [%]	cell viability (U2OS [4]; 100 nM) [%]	cell viability (U2OS [4]; 1000 nM) [%]	cell viability (U2OS [4]; 10000 nM) [%]	cell viability (Vero E6 [5]; 1 nM) [%]	cell viability (Vero E6 [5]; 10 nM) [%]	cell viability (Vero E6 [5]; 100 nM) [%]	cell viability (Vero E6 [5]; 1000 nM) [%]	cell viability (Vero E6 [5]; 10000 nM) [%]	relative viability EC50 (Caco-2 [6]) [µM]	relative viability EC50 (Calu-3 [7]) [µM]	relative viability EC50 (HepG2 [8]) [µM]	relative viability EC50 (U2OS [9]) [µM]	relative viability EC50 (Vero E6 [10]) [µM]	drug sensitivity score (Caco-2 [11])	drug sensitivity score (Calu-3 [12])	drug sensitivity score (HepG2 [13])	drug sensitivity score (U2OS [14])	drug sensitivity score (Vero E6 [15])
Cc1cc(C(=O)N2Cc3cnn(C)c3Nc3ccccc32)ccc1CNC(=O)N1CCC[C@H]1C(=S)N1CCCN(C)CC1 [TC-OT-39]	99.8	92.2	98.7	106	100	98.1	84.4	105	97.9	90	100	90.3	97	104	96.8	97.7	100	106	98	101	95.3	98.6	94.4	97.5	102	> 10	> 10	> 10	> 10	> 10	0	0	0	0	0
O=C(O)CC1CC(c2ccccc2)=NO1 (stereo not given) [VGX-1027]	98.2	106	99.6	96.1	104	91.7	101	91.8	93.7	103	98.1	93.8	101	104	115	101	94.8	97.1	103	103	94.1	94.7	97.6	95	102	> 10	> 10	> 10	> 10	> 10	0	0	0	0	0
COc1cc2c(Nc3ccc(Cl)c(Cl)c3F)ncnc2cc1OC[C@@H]1C[C@@H]2CN(C)C[C@@H]2C1 [XL647]	92.1	92.6	95	72.1	14.9	98.8	93.2	82.4	31	0.7	102	89.7	99.7	92.9	6.7	95.9	95.9	93.7	84.2	-0.3	96.8	100	85.1	39.2	-0.4	1.39	0.431	2.55	1.94	0.612	8.4	15.3	6.3	8.2	13.6
Cc1ccc(Oc2ccccc2-c2csc(N=C3NCCCN3)n2)c(C)c1 [abafungin]	104	105	100	87.5	78.3	90.4	99	104	99.3	112	105	104	104	87.8	75.8	91.6	95.2	93.6	96.7	91.2	106	99.8	105	99.4	97.7	> 10	> 10	> 10	> 10	> 10	2	0	2.3	0	0
CC(=O)Nc1c(I)cc(I)c(C(=O)O)c1I [acetriazoic-acid]	91.2	92	96.3	97.8	102	98.6	95.3	95.1	99.4	97.1	96.6	92.1	89.9	95.8	107	94.2	92.4	98.7	97.2	98.2	93.2	99	93.8	98.4	102	> 10	> 10	> 10	> 10	> 10	0	0	0	0	0
COc1ccc(-c2ccc3cc(C(=O)O)ccc3c2)cc1C12CC3CC(CC(C3)C1)C2 [adapalene]	95.3	99.6	97.6	99.4	93.3	98.6	101	101	101	86.2	102	96.9	109	104	112	94.5	98.2	94.6	99.4	98.4	98.1	94.6	95.4	93.3	115	> 10	> 10	> 10	> 10	> 10	0	0.1	0	0	0
C[C@]12CCC(=O)C=C1CC[C@@H]1[C@@H]2C(=O)C[C@]2(C)C(=O)CC[C@@H]12 [adrenosterone]	107	96	98	95	97.5	106	92.5	100	98.1	96.4	98.6	98.8	94.5	97.7	97.5	103	95	98.2	97.4	99.1	95.3	100	99.3	97.5	97.1	> 10	> 10	> 10	> 10	> 10	0	0	0	0	0
C=CC[C@]1(O)CC[C@H]2[C@@H]3CCC4=CCCC[C@@H]4[C@H]3CC[C@@]21C [allylestrenol]	107	102	112	102	88.8	98	108	116	104	106	105	104	108	105	98.3	94.6	98.1	94.8	99.4	99.5	102	91.5	106	103	97.7	> 10	> 10	> 10	> 10	> 10	0	0	0	0	0
CN(C)CCC=C1c2ccccc2CCc2ccccc21 [amitriptyline]	110	77.9	104	96.5	90.8	99.6	109	110	104	90.3	107	102	99.1	93	83.5	102	98.5	100	101	92.3	102	94	86.5	113	86.3	> 10	> 10	> 10	> 10	> 10	0	0	0.8	0	0
CC1(C)S[C@@H]2[C@H](NC(=O)[C@H](N)c3ccc(O)cc3)C(=O)N2[C@H]1C(=O)O [amoxicillin]	85	78.5	85.4	97	97.7	109	110	110	106	96.5	99.3	106	97.3	98.2	96.4	102	103	96.2	102	106	101	97.8	98.2	88.2	102	> 10	> 10	> 10	> 10	> 10	0	0	0	0	0
CCOC(=O)c1c(CSc2ccccc2)n(C)c2cc(Br)c(O)c(CN(C)C)c12 [arbidol]	94.9	88.1	94.4	96.7	88.2	94.5	96.7	96	96.8	81.6	96	104	108	104	97.2	98.3	92.8	96.8	92.4	93.8	92.9	96.6	92	104	101	> 10	> 10	> 10	> 10	> 10	0	0.9	0	0	0
C[C@@H]1CC[C@H]2[C@@H](C)C(=O)O[C@@H]3O[C@@]4(C)CC[C@@H]1[C@]32OO4 [artemisinin]	95.6	104	102	91.4	81.6	101	102	99.5	95.4	97.5	97.3	93.1	88.7	86.1	77.1	96.9	99.8	94.6	91.1	78.6	97.5	95.4	98	96.9	100	> 10	> 10	> 10	> 10	> 10	1.3	0	2.5	1.1	0
C=C[C@@H]1C[C@]1(NC(=O)[C@@H]1C[C@@H](Oc2ncc(OC)c3ccc(Cl)cc23)CN1C(=O)[C@@H](NC(=O)OC(C)(C)C)C(C)(C)C)C(=O)NS(=O)(=O)C1CC1 [asunaprevir]	98.7	96.5	90	104	85.8	104	101	104	101	95.9	104	97.8	98.8	89.8	86.1	98.4	101	96.7	96.8	97.8	102	98.4	93.5	101	91	> 10	> 10	> 10	> 10	> 10	0.1	0	0.6	0	0
C=C[C@@](C)(/C=C/c1ccc(O)cc1)CCC=C(C)C [bakuchiol]	105	87.4	109	96.8	97.6	94.8	94.9	95.7	96.1	98.2	107	115	87.9	93	81.5	96.1	101	98	92.8	97.6	103	110	98.7	97.6	98.5	> 10	> 10	> 10	> 10	> 10	0	0	0.9	0	0
